One may read the melting point as the temperature, or range, at which the solid turns liquid.

Series [1] has as its system anaesthetized rats. The experiment in a line: Blood pressure measurements in anaesthetized rats. Format: in vivo. Particulars: anaesthetized male Wistar rats. The method, then: Blood Pressure Measurements in Anaesthetized Rats
Male Wistar rats having a bodyweight of 300-350 g are anaesthetized with Thiopental (100 mg/kg i.p.). After tracheotomy, a catheter is inserted into the femoral artery for blood pressure measurement. The substances to be tested are administered orally in Transcutol, Cremophor EL, H2O (10%/20%/70%) in a volume of 1 ml/kg.

For series [2], the system named is soluble guanylate cyclase. The experiment in a line: Stimulation of soluble guanylate cyclase in primary endothelial cells (intracellular cGMP). Format: cell-based. Particulars: pig aortic primary endothelial cells, 10 min. The method, then:
Stimulation of Soluble Guanylate Cyclase in Primary Endothelial Cells
Primary endothelial cells were isolated from pig aortas by treatment with collagenase soln. The cells were then cultured in culture medium at 37 °C./5% CO2 until confluence was reached. For the investigations, the cells were passaged, inoculated into 24-well cell culture plates and subcultured until reaching confluence (˜2×10^5 cells/well). For the stimulation of endothelial guanylate cyclase, the culture medium was aspirated and the cells were washed once with Ringer solution. After removing the Ringer solution, the cells were incubated for 10 minutes, at 37° C./5% CO2 in stimulation buffer. […] After a further 10 minutes the buffer solution was aspirated and cold buffer at 4° C. was added to the cells. The cells were then lysed at −20° C. for 16 hours. The supernatants containing the intracellular cGMP were then removed and the cGMP concentration was determined by means of the cGMP-SPA system (Amersham Buchler, Brunswick).

In series [3] the test system is awake rabbits. Kind of series: Erection-promoting action of guanylate cyclase stimulators in awake rabbits. Particulars: for Erection-promoting effect, +SNP i.v.: with sodium nitroprusside 0.2 mg/kg i.v. simultaneously; for Erection-promoting effect, +SNP po: sodium nitroprusside 0.2 mg/kg i.v. 30 min later. The format is in vivo, chinchilla rabbits. The text has this: For a complete and lasting erection to occur, the cavernous arteries and the entire cavernous body architecture, which is formed by a network of smooth muscle cells and collagen connective tissue, has to be at maximum dilation so that the corpus cavernosum can fill completely with blood (Anderson K.-E. and Wagner G., “Physiology of Penile Erection.”. Physiological Reviews 75, 191-236 (1995); Meinhardt W. Kropmann R F, Vermeig P, Lycclama a Nigelholt and Zwartendijk J. “The Influence of Medication on Erectile dysfunction.” Int. J. of Impotence Res. 9, 17-26 (1997). Relaxation of smooth muscles is mediated by NO which, in the case of sexual stimulation, is released by non-adrenergic, non-cholinergic nerve fibres in the endothelial cells of the blood vessels of the corpus cavernosum. NO activates guanylate cyclase, and the resulting increase in cGMP leads to dilation of the smooth muscles of the corpus cavernosum and consequently to an erection. To test the efficacy of the substances according to the invention, awake rabbits were used. The species rabbit was chosen since neurophysiology, haemodynamic and the control of contraction and relaxation of the smooth muscles of the corpus cavernosum of rabbit and man are quite similar (Meyer M F, Taher H., Krah H., Staubesand J., Becker A J, Kircher M, Mayer B., Jonas U., Forsmann W G., Stief Ch.G. “Intracavenous Application of SIN-1 in Rabbit and Man: Functional and Toxcological Results.” Annals Urol. 27, 179-182 (1993); Taub H C, Lerner S E, Melman A, Christ G J “Relationship between contraction and relaxation in human and rabbit corpus cavernosum.” Urology 42, 698-671, (1993).
Adult male chinchilla rabbits having a weight of 3-5 kg are, after delivery, adapted for several days in isolation. They have free access to water and can feed for two hours per day. The animals are kept in a 10/14 hour day/night rhythm (light switched on from 8.00 hours onwards). The room temperature is 22-24° C.
The animals are weighed directly before the start of the experiment. For intravenous administration, the substances according to the invention were dissolved in a mixture of Transcutol (GATTEFOSSE GmbH ) diluted with 20% Cremophor (BASF) and water in a ratio of 3/7. Sodium nitroprusside was dissolved in 0.9% NaCl. The substances were injected at the dosages stated in the table in a volume of 0.5 ml/kg into the auricular vein. For oral administration, the test substances were dissolved in a mixture of glycerol: water: polyethylene glycol 6:10:9.69 and administered at the dosages stated in the table in a volume of 1 ml/kg using the stomach tube.
The effect of guanylate cyclase stimulators is increased by NO donors.
The sodium nitroprusside was injected into the auricular vein at a dosage of 0.2 mg/kg simultaneously with the substance according to the invention. If the substance according to the invention was administered orally, the sodium nitroprusside was injected into the auricular vein of these animals 30 min after the oral administration. Corresponding controls were carried out using the solvent and using sodium nitroprusside on its own.
At rest, the penis of the rabbit is not visible in the pubic region and is covered completely by the sheath. The erection is assessed by measuring the length of the protruding penis with a calliper square. Measurements are carried out 5, 10, 15, 30, 45, 60, 120 and 180 min. after the administration of the substance. The effect is calculated as the product of the length of the penis which is not covered by fur in [mm] and the time for which the erection persists in [min].
The substances were administered in the dosages stated. The sodium nitroprusside was in each case administered i.v., at 0.2 mg/kg. If the substance according to the invention was administered i.v., the sodium nitroprusside was administered simultaneously, if the substance according to the invention was administered orally, it was administered 30 min later. […]

Series [4] deals with human platelets stimulated with collagen. Kind of series: Inhibition of platelet aggregation in vitro (collagen-induced). Format: cell-based. Conditions: 10 min, washed human platelets, 10 min incubation at 37° C. The method, then: To determine the cardiovascular action, the following investigations were carried out: In in vitro investigations on the isolated enzyme and on cells of vascular origin, the effect on guanylate cyclase-dependent cGMP formation was tested with and without NO donor. The anti-aggregatory properties were shown on human platelets stimulated with collagen. The vasorelaxant action was determined in rabbit aortal rings preconcentrated with phenylephrine. The hypotensive action was investigated in anaesthetized and awake rats.
To determine the platelet-aggregation, blood from healthy volunteers of both sexes was used. As an anticoagulant, 9 parts of blood were admixed to one part of 3.8% strength sodium citrate solution. The blood was centrifuged at 900 rpm for 20 min. The pH of the platelet-rich plasma obtained was adjusted to pH 6.5 using ACD solution (sodium citrate/citric acid/glucose). The platelets were subsequently centrifuged off and resuspended in buffer and once more centrifuged off. The platelet pellet was suspended in buffer and mixed with an additional 2 mmol/l of CaCl2.
To measure the aggregation, aliquots of the platelet suspension were incubated with the substance to tested at 37° C. for 10 min.

Series [5] has as its system rabbit aortal rings. The experiment in a line: Vasorelaxant action in vitro, aortal rings contracted with phenylephrine. Conditions: Oryctolagus cuniculus; rabbit aorta rings, phenylephrine contraction; read-out: IC50 (concentration reducing height of phenylephrine contraction by 50%). The method, then:
Vasorelaxant Action in vitro
Rabbits are anaesthetized by a blow to the neck and exanguinated. The aorta is removed, freed from adhering tissue, divided into 1.5 mm wide rings and individually transferred under a pretension into 5 ml organ baths containing a warm, carbogen-aerated Krebs-Henseleit solution at 37° C. of the following composition (mM): NaCl: 119; KCl: 4.8; CaCl2×2 H2O: 1; MgSO4×7 H2O; 1.4; KH2PO4: 1.2; NaHCO3: 25; glucose: 10. The contractility is detected using Statham UC2 cells, amplified and digitalized by means of A/D converters (DAS-1802 HC, Keithley Instruments Munich), and recorded in parallel on linear recorders. To produce a contraction, phenylephrin is added to the bath cumulatively in increasing concentration. After several control cycles, the substance to be investigated is investigated in each further passage in increasing dosage in each case, and the height of the contraction is compared with the height of the contraction achieved in the last preliminary passage. From this, the concentration which is necessary in order to reduce the height of the control value by 50% (IC50) is calculated. The standard administration volume is 5 μl, and the proportion of DMSO in the bath solution corresponds to 0.1%.

Take `Nc1nc(-c2nn(Cc3ccccc3F)c3ncccc23)ncc1C1CC1` [Example 1, 3-(4-Amino-5-cyclopropylpyrimidin-2-yl)-1-(2-fluorobenzyl)-1H-pyrazolo[3,4-b]pyridine]: the entries for the “Max. reduction in blood pressure” value in series [1] (1 mg/kg p.o.) and in series [1] (3 mg/kg p.o.) were 23 mm Hg and 37 mm Hg, respectively. In addition, the “Time (of max. reduction in blood pressure)” value was 20 min in series [1] (1 mg/kg p.o.) and 40 min in series [1] (3 mg/kg p.o.). Also, the cGMP in series [2] (concentration 0.1 μM) came out at 2.2 pmol/well; in series [2] (concentration 0.3 μM) it was 4.0 pmol/well; in series [2] (concentration 1.0 μM), 6.9 pmol/well; in series [2] (concentration 3.0 μM) it was 8.5 pmol/well; in series [2] (concentration 10 μM), 14.6 pmol/well. Further, the “Erection-promoting effect, +SNP i.v.” value was 140 [mm] × [min] in series [3] (0.3 mg/kg i.v.) and 369 [mm] × [min] in series [3] (1 mg/kg i.v.). Also, the “Erection-promoting effect, +SNP po” value in series [3] (1 mg/kg po) is 184 [mm] × [min]; in series [3] (3 mg/kg po), 233 [mm] × [min]; in series [3] (10 mg/kg po), 375 [mm] × [min]; in series [3] (30 mg/kg po), 804 [mm] × [min]. In addition, in series [3] (30 mg/kg po, without sodium nitroprusside), the “Erection-promoting effect, −SNP po” value is 418 [mm] × [min]. The IC50 in series [4] was 3 nM; in series [5], 200 nM.
`Nc1nc(-c2nn(Cc3ccccc3F)c3ncccc23)ncc1C1CCC1` [Example 2, 3-(4-Amino-5-cyclobutylpyrimidin-2-yl)-1-(2-fluorobenzyl)-1H-pyrazolo[3,4-b]pyridine] had a melting point of 214 °C.
`Nc1nc(-c2nn(Cc3ccccc3F)c3ncccc23)ncc1C1CCCC1` [Example 3, 3-(4-Amino-5-cyclopentylpyrimidin-2-yl)-1-(2-fluorobenzyl)-1H-pyrazolo[3,4-b]pyridine] showed a melting point of 208 °C.
The same measure, in the same setting: the result for `Nc1nc(-c2nn(Cc3ccccc3F)c3ncccc23)ncc1C1CCCCC1` [Example 4, 3(4-Amino-5-cyclohexylpyrimidin-2-yl)-1-(2-fluorobenzyl)-1H-pyrazolo[3,4-b]pyridine] reads 213 °C.
